From ChEMBL document CHEMBL1201862, “PubChem BioAssay data set” (2004)
Calls of active or inactive are those of the source.

Tests used:
[1] = Luminescence Cell-Based Dose Retest to Confirm Inhibitors of Cancer Stem Cells. [Related pubchem assays (depositor defined):AID2717, AID2721]; format: functional; details: Homo sapiens
[2] = molecular target: T1, Microphthalmia-associated transcription factor (Homo sapiens, UniProt O75030); assay: TRPM1 promoter luciferase signal decrease, dose response, MITF inhibitor project, cell-based, SK-MEL-5, cherry-picked, set 3 (AID 493073); format: functional
T1 sequence (O75030 whole entry): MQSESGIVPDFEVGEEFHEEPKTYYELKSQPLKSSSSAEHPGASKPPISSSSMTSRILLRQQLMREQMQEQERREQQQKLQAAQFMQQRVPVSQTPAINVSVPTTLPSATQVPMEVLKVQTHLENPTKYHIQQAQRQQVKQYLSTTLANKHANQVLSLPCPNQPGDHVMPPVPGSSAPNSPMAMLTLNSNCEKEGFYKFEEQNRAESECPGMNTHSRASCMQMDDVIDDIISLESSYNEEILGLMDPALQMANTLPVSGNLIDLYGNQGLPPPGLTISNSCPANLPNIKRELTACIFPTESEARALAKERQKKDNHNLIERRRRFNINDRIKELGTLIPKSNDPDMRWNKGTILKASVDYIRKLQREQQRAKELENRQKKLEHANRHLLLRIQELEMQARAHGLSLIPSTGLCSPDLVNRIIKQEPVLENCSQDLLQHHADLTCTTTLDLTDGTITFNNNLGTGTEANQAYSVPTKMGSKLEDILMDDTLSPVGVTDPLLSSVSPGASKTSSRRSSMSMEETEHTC

[3] = Fluorescence-based cell-based high throughput dose response assay for inhibitors of the interaction of nucleotide-binding oligomerization domain containing 2 (NOD2) and the receptor-interacting serine-threonine kinase 2 (RIPK2).; format: functional; details: Homo sapiens
[4] = miR-122 activators in hepatoma reporter cells, dose response, cell-based, Huh7 psiCHECK-miR122, Renilla luciferase, cherry-picked (AID 651956); format: functional;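 also: huh7 hepatoma cells stably carrying a psiCHECK-2 miR-122 sensor plasmid; renilla luciferase signal reporting endogenous miR-122 activity after 48 h compound exposure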
Paired box protein Pax-8 = Paired box protein Pax-8 (Homo sapiens, UniProt Q06710); assay: inhibitors of PAX8-driven TPO luciferase reporter, dose response, RMG-I cells, cherry-pick (AID 687027); format: functional, cell-based;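 also: luciferase reporter driven by Pax8 target thyroperoxidase promoter measured by SteadyGlo luminescence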
Chain of Paired box protein Pax-8 (Q06710 whole entry): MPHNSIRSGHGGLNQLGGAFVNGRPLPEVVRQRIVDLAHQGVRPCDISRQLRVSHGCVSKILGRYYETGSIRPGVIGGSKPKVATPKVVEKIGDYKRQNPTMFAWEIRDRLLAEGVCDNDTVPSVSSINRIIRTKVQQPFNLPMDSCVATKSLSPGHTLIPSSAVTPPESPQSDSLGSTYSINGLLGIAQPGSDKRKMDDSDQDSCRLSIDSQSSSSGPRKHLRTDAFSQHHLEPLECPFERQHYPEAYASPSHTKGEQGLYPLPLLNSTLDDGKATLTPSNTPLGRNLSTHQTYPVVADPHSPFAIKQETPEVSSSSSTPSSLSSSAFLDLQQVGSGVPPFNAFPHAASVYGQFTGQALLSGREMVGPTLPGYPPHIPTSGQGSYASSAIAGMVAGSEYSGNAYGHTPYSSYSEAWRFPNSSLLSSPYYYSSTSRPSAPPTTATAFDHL

Caspase-6 = molecular target: T2, Caspase-6 (Homo sapiens, UniProt P55212); assay: human caspase-6 inhibitors, dose response, biochemical, VEID-R110 fluorescence, cherry-pick (AID 720632)
T2 sequence (P55212 whole entry): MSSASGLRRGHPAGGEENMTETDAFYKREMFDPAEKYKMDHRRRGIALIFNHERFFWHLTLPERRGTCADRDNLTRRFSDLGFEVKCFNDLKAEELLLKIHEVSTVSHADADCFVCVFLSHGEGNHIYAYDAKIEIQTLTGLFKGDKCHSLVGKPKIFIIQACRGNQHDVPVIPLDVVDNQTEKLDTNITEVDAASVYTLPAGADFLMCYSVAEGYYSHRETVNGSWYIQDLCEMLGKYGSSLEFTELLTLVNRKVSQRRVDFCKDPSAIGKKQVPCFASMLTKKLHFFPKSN

[5] = HEK293T cytotoxicity, dose response, cytotoxicity control for miR-122 modulator project, cell-based, inhibitor set, cherry-pick, set 2 (AID 720697); format: functional
[6] = HEK293T cytotoxicity, dose response, cytotoxicity control for miR-122 modulator project, cell-based, activator set, cherry-pick (AID 720690); format: functional;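 also: HEK293T human cells scored for general mammalian cytotoxicity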
Beta-lactamase [7] = molecular target: Beta-lactamase (Pseudomonas aeruginosa, UniProt Q79MP6);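 also: biochemical dose-response test of metallo-beta-lactamase enzyme inhibition, read out by epi-absorbance; purified recombinant IMP-1 metallo-beta-lactamase with nitrocefin as substrate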
Chain of Beta-lactamase (Pseudomonas aeruginosa, UniProt Q79MP6) (Q79MP6 whole entry): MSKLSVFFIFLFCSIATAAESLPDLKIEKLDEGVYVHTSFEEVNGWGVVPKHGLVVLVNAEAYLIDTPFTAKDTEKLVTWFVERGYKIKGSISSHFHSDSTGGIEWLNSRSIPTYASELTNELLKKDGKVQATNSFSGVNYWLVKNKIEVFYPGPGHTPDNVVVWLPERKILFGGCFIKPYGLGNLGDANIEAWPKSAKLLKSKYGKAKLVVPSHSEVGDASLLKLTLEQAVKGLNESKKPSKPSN

Beta-lactamase [8] = molecular target: Beta-lactamase (Salmonella choleraesuis (strain SC-B67), UniProt Q5J463)
Chain of Beta-lactamase (Salmonella choleraesuis (strain SC-B67), UniProt Q5J463) (Q5J463 whole entry): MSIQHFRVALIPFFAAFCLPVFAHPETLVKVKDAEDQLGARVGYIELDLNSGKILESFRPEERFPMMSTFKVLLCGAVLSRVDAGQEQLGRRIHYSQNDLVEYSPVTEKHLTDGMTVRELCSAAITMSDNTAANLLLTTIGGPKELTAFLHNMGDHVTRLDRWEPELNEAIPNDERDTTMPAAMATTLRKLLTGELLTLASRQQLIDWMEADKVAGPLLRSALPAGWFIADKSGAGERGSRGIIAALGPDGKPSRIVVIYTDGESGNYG

[9] = molecular target: T3, Small ubiquitin-related modifier 1 (Homo sapiens, UniProt P63165); assay: inhibitors of SUMO1 peptide binding, dose response, biochemical, fluorescence polarization, uHTS hits (AID 624382); format: functional; details: read-out: IC50_Mean
T3 sequence (P63165 whole entry): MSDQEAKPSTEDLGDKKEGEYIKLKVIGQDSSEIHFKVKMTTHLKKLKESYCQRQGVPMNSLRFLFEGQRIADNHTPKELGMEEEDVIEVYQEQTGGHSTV

[10] = molecular target: T3, Small ubiquitin-related modifier 1; assay: inhibitors of SUMO1 partner interactions, dose response, biochemical, FRET (AID 624383); format: functional; details: read-out: IC50_Mean
[11] = molecular target: T4, Low molecular weight phosphotyrosine protein phosphatase (Homo sapiens, UniProt P24666); format: functional; details: read-out: IC50_Mean
T4 sequence (P24666 whole entry): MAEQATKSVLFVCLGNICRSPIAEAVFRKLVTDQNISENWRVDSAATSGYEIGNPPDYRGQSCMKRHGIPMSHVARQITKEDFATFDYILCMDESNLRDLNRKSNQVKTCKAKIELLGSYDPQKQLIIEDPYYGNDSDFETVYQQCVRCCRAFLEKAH

[12] = molecular target: T4, Low molecular weight phosphotyrosine protein phosphatase; format: functional; details: read-out: IC50_Mean; remark: listed apart in the source
Leucine aminopeptidase = molecular target: T5, Leucine aminopeptidase (Plasmodium falciparum 3D7, UniProt Q8IL11); assay: P. falciparum M17LAP inhibitors, primary screen, biochemical, fluorogenic H-Leu-NHMec substrate, 1536-well (AID 1619); format: functional
T5 sequence (Q8IL11 whole entry): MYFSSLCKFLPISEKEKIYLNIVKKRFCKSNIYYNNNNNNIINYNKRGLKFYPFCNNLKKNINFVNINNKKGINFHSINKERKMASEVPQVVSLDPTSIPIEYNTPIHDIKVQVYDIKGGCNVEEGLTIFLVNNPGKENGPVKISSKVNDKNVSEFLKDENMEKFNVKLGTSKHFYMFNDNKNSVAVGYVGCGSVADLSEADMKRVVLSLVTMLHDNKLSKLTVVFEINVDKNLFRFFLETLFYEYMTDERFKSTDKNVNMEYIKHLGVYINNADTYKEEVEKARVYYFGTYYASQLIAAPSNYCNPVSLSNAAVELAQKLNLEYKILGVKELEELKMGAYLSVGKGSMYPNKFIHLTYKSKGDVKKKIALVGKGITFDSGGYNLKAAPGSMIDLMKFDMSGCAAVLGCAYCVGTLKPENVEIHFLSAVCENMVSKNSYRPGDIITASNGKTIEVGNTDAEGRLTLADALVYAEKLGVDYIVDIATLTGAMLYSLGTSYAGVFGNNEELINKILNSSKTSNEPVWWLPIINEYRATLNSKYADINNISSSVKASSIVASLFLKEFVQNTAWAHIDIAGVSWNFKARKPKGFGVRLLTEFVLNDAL

[13] = molecular target: T6, Corticotropin-releasing factor receptor 2/Corticotropin-releasing factor-binding protein (Homo sapiens, UniProt P24387+Q13324); assay: Dose Response confirmation of uHTS hits for small molecule antagonists of the CRF-binding protein and CRF-R2 receptor complex.; format: functional; details: read-out: IC50_Mean
T6 sequence (Q13324 whole entry): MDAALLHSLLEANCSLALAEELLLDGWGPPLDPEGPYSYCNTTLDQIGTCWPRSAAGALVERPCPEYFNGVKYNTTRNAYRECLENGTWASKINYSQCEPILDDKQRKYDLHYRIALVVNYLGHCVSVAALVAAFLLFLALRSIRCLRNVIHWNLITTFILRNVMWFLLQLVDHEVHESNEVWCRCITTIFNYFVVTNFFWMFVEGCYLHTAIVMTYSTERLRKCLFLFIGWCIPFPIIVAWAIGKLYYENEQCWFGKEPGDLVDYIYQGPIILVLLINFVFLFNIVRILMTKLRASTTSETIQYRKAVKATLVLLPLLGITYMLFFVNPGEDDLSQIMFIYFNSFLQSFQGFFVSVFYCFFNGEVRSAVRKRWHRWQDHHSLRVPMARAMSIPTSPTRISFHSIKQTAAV
T6 sequence (P24387 whole entry): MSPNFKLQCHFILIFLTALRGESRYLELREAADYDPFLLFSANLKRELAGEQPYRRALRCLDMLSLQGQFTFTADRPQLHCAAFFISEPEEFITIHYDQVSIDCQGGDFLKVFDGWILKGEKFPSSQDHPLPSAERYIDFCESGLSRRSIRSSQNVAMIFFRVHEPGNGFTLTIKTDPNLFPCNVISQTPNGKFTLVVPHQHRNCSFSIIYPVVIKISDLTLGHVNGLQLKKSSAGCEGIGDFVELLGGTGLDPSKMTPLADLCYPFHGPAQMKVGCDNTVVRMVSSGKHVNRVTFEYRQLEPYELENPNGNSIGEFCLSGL

[14] = molecular target: T6, Corticotropin-releasing factor receptor 2/Corticotropin-releasing factor-binding protein; assay: activators of CRF receptor 2 with binding protein – uHTS hits, confirmation (AID 602473); format: functional; details: read-out: EC50_Mean
[15] = CRF-BP/CRF-R2 complex antagonists, dose response, cell-based, uHTS hits, 384-well (AID 651639); format: functional, Homo sapiens; details: read-out: IC50_Mean
[16] = molecular target: Photoreceptor-specific nuclear receptor (Homo sapiens, UniProt Q9Y5X4); format: functional, cell-based;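 also: CHO-S cells with Gal4-NCOR and VP16-NR2E3 two-hybrid luciferase reporter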
Chain of Photoreceptor-specific nuclear receptor (Q9Y5X4 whole entry, the tested form may be a part): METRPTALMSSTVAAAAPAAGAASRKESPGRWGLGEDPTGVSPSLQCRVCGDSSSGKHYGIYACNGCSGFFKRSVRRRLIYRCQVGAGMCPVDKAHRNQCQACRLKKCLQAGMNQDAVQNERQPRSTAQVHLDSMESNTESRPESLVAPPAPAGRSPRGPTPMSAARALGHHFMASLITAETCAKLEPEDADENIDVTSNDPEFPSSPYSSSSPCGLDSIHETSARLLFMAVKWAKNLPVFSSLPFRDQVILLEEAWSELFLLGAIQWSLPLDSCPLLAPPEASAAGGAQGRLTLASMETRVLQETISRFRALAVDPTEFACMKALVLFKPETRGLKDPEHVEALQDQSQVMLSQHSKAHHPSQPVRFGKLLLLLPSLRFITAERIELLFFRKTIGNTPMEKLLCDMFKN

[17] = Shn3 3'UTR reporter inhibitors, dose response, cell-based, Clone20 osteoblasts, firefly luciferase, cherry-picked (AID 624132); format: functional;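 also: firefly luciferase luminescence from reporter carrying the Shn3 3'UTR in osteoblasts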
[18] = HepG2 cell cytotoxicity, dose response, cytotoxicity control for Shn3 inhibitor project, CellTiter-Glo, cherry-picked (AID 624134); format: functional, cell-based
[19] = control 3'UTR Renilla luciferase suppression, dose response, counter-screen for Shn3 inhibitor project, cell-based, Clone20-Shn3RL, cherry-picked (AID 624133); format: functional

Cc1ccc(NC(=O)CN(C)C(=O)Cn2ncc(Cl)c(Cl)c2=O)cc1
AC50 [1]: 4.54 µM (active)
AC50 [2]: 9.16 µM (active)
IC50 [3]: 4.34 µM (active)
AC50 [4]: 4.2 µM (active)
AC50 (Paired box protein Pax-8): 3.57 µM (active)
AC50 (Caspase-6): 5.9 µM (active)
AC50 [5]: 8.04 µM (active)
AC50 [6]: 3.57 µM (active)

COc1ccccc1-c1csc(-n2ncc(C#N)c2N)n1
IC50 (Beta-lactamase [7]): > 59.6 µM (inactive)
IC50 (Beta-lactamase [8]): > 59.6 µM (inactive)
IC50 [9]: > 66.6 µM (inactive)
IC50 [10]: 6.71 µM (active)

O=C(N/N=C/c1ccc(OC(=O)c2cccc(F)c2)cc1)c1cccnc1
IC50 [11]: 14.4 µM (active)
IC50 [12]: 15.4 µM (active)

O=C(CN1CCN(c2ccccc2F)CC1)c1ccc2cc[nH]c2c1
IC50 [11]: 5.49 µM (active)
IC50 [12]: 14.6 µM (active)

Cc1ccc(S(=O)(=O)N(CC(=O)Nc2ccccc2C(=O)O)c2cccc(Cl)c2C)cc1
IC50 (Leucine aminopeptidase): 24.7 µM (active)
IC50 [13]: 41.1 µM (active)
EC50 [14]: 41.2 µM (active)
IC50 [15]: 15.6 µM (active)
IC50 [16]: 2.15 µM (active)

CC(C)(C)NCC(=Cc1ccccc1)C(=O)c1ccccc1
AC50 [17]: 4.51 µM (active)
AC50 [18]: 11.1 µM (active)
AC50 [19]: 6.44 µM (active)
IC50 [3]: 10.4 µM (inactive)
IC50 [16]: 2.91 µM (active)
